According to ChEMBL document CHEMBL1201862, “PubChem BioAssay data set” (2004):
Calls of active or inactive are those of the source.

Experiments:
[1] = growth suppression of PTEN-null colon cells, dose response, cell-based, HCT116 PTEN knockout (AID 1047); assay type: functional;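 further: HCT116 colon tumor cells with PTEN knocked out; cells exposed to compound for 60 hours before readout; potency for loss of cell viability measured by luminescence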
[2] = growth suppression of beta-catenin-knockout colon cells, dose response, cell-based, HCT116, human colon tumor (AID 1045); assay type: functional;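 further: HCT116 colon tumor cells with beta catenin knocked out; cells exposed to compound for 60 hours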
[3] = target: T1, High affinity choline transporter 1 (Homo sapiens, UniProt Q9GZV3); test: CHT inhibitors, dose response, cell-based, 5-point CRC, membrane potential dye (AID 504840); assay type: functional
T1 sequence (Q9GZV3 whole entry): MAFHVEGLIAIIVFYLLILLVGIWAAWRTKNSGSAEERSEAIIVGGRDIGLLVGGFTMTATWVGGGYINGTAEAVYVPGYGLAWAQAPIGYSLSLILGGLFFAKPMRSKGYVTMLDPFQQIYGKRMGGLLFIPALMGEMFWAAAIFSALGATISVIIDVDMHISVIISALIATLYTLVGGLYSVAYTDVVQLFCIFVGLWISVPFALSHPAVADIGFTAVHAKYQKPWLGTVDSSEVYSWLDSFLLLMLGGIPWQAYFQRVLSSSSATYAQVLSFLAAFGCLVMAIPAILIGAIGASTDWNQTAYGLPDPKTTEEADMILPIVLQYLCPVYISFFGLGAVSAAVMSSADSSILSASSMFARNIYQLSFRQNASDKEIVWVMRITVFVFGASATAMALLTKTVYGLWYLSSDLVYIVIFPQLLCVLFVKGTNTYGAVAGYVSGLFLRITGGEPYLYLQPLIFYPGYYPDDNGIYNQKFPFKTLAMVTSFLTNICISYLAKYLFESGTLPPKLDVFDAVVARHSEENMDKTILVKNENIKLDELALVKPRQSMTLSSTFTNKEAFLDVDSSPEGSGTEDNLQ

[4] = target: T2, Heat shock factor protein 1 (Mus musculus, UniProt P38532); test: inhibition of MG132-induced HSE-luciferase signal, confirmation, cell-based, NIH3T3, luminescence, dose retest (AID 2382); assay type: functional;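 further: NIH3T3 fibroblasts with HSF1-driven luciferase reporter stressed by proteasome inhibitor MG132; luminescence from HSF1-driven luciferase expression after 8 hours of MG132 stress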
T2 sequence (P38532 whole entry): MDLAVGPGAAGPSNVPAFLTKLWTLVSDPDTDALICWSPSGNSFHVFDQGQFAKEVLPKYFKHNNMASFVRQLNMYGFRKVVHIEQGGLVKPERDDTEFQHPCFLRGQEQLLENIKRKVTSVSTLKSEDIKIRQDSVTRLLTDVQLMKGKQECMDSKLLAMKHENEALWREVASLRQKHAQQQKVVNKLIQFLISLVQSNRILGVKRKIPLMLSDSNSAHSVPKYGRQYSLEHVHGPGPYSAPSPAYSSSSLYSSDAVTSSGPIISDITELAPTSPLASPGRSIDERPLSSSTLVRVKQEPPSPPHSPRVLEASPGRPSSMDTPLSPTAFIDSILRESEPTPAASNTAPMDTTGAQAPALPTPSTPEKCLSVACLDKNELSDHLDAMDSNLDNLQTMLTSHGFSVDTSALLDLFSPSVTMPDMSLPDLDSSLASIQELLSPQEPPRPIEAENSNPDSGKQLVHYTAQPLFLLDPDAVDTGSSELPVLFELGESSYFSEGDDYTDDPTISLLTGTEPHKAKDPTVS

[5] = target: FAD-linked sulfhydryl oxidase ALR (Homo sapiens, UniProt P55789); test: inhibitors of human ALR sulfhydryl oxidase, dose response, biochemical, H2O2 detection, luminescence, cherry-pick (AID 493248)
P388/ADR = test: cells; assay type: functional; conditions: Mus musculus
SN12K1 = test: cells; assay type: functional; conditions: Homo sapiens
P388 = test: cells; assay type: functional; conditions: Mus musculus
[6] = Shn3 3'UTR reporter inhibitors, dose response, cell-based, Clone20 osteoblasts, firefly luciferase, cherry-picked (AID 624132); assay type: functional;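 further: firefly luciferase luminescence from reporter carrying the Shn3 3'UTR in osteoblasts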
[7] = HepG2 cell cytotoxicity, dose response, cytotoxicity control for Shn3 inhibitor project, CellTiter-Glo, cherry-picked (AID 624134); assay type: functional, cell-based
[8] = control 3'UTR Renilla luciferase suppression, dose response, counter-screen for Shn3 inhibitor project, cell-based, Clone20-Shn3RL, cherry-picked (AID 624133); assay type: functional
[9] = inhibitors of HIV Env-driven cell fusion, dose response, cherry-pick (AID 652057); assay type: functional, cell-based
[10] = inhibitors of clade B AD8 Env fusion, dose response, cell-based, cherry-pick (AID 652062); assay type: functional;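 further: luciferase signal from cell-cell fusion driven by HIV-1 clade B AD8 Env; potency is for inhibitors of fusion seen as a drop in luminescence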
INS1 = test: beta cell apoptosis inhibitors, cytokine rescue, dose response, luminescence, retest (AID 449756); assay type: functional, cell-based; conditions: Rattus norvegicus;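 further: cell death triggered by IL-1 beta plus TNF-alpha plus IFN-gamma mixture; protective hits raise ATP signal compared with cytokine alone wells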

Sequence of FAD-linked sulfhydryl oxidase ALR (P55789 whole entry): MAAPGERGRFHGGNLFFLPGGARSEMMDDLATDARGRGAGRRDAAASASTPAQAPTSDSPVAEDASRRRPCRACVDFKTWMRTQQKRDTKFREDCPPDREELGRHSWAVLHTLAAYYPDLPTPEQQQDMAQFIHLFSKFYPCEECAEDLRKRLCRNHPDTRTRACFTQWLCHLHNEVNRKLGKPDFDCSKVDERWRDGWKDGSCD

COc1cc2c(cc1OC)CN(c1nc(CN3CCOCC3)nc3sc4c(c13)CCC(C)C4)CC2 (centres undefined)
EC50 [1]: 9.18 µM (active) | EC50 [2]: 9.91 µM (active)

Cc1ccccc1N(C)S(=O)(=O)c1ccc2ncc(C(=O)NCC3CCCO3)c(O)c2c1 (centres undefined)
IC50 [3]: 12 µM (active)

CNC(SCc1cc2c(cc1Cl)OCO2)=C1C(=O)N(C)C(=O)N(C)C1=O
EC50 [4]: > 195 µM (not active) | AC50 [5]: 1.56 µM (active)

CC(C)=CCc1c(C)cc2cc3c(c(O)c2c1O)C(=O)C=C(O)C3(CC=C(C)C)C/C=C(\C)CO (centres undefined)
GI50 (P388/ADR): 20.1 µM (inactive) | GI50 (SN12K1): 35.2 µM (inactive) | GI50 (P388): 23.5 µM (inactive)

CC1CC(C)(C)CC2(C1)NC(=O)N(CC(=O)N1CCN(Cc3ccc(C#N)cc3)CC1)C2=O (centres undefined)
AC50 [6]: 1.47 µM (active) | AC50 [7]: 2.54 µM (active) | AC50 [8]: 0.65 µM (active)

FC(F)(F)C1=NC(=NNc2nnc(-c3ccccc3)c(-c3ccccc3)n2)N=C(C(F)(F)F)C1
GI50 (P388/ADR): 11.1 µM (inactive) | GI50 (SN12K1): 10.1 µM (inactive) | GI50 (P388): 0.891 µM (active)

Cc1nn(Cc2ccccc2Cl)c(C)c1NC(=O)c1noc2c1CCCCC2
IC50 [3]: 13.8 µM (active)

COc1ccc(S(=O)(=O)Nc2ccc3c(c2)CC(=O)N([C@H](C)CO)C[C@H](C)[C@H](CN(C)S(=O)(=O)c2cccs2)O3)cc1
AC50 [9]: 0.509 µM (active) | AC50 [10]: 3.88 µM (active)

COc1ccc(-n2nnnc2CNC(=O)c2ccc3ccccc3c2)cc1
IC50 [3]: 14.5 µM (active)

COC(=O)c1cccc(NC(=O)c2ccc(S(=O)(=O)N3CCN(C)CC3)cc2)c1
IC50 [3]: 14.5 µM (active)

COc1ccc2c(c1)CCCc1cn[nH]c1-2
GI50 (P388/ADR): > 100 µM (inactive) | GI50 (SN12K1): > 100 µM (inactive) | GI50 (P388): > 100 µM (inactive)

Cc1cc(C)cc(NS(=O)(=O)c2cnc(Cl)c(Cl)c2)c1
IC50 [3]: 16.6 µM (active)

COc1ccc(C2/C=C\CN(C(=O)c3ccccc3)[C@H](Cc3ccccc3)C(=O)N2Cc2ccc(F)cc2)cc1 (some centres undefined)
AC50 (INS1): 7.46 µM (active)

Cc1c(N)nc([C@H](CC(N)=O)NC[C@H](N)C(N)=O)nc1C(=O)N[C@H](C(=O)N[C@H](C)[C@@H](O)[C@H](C)C(=O)N[C@H](C(=O)NCCc1nc(-c2nc(C(=O)NCCC[S+](C)C)cs2)cs1)[C@@H](C)O)C(OC1OC(CO)C(O)C(O)C1OC1OC(CO)C(O)C(OC(N)=O)C1O)c1c[nH]cn1 (some centres undefined)
GI50 (P388/ADR): 3.49 µM (inactive) | GI50 (SN12K1): 0.19 µM (active) | GI50 (P388): 2.11 µM (inactive)

Cc1ccc(C)c(Oc2cc(NC(=O)CCCn3nc(C)c([N+](=O)[O-])c3C)cc([N+](=O)[O-])c2)c1
EC50 [1]: 21.1 µM (active) | EC50 [2]: 18.9 µM (active)
